Results reported in patent publication US20180016554A1, “HUMAN SERUM ALBUMIN-CONTAINING CULTURE MEDIUM FOR GROWTH OF NEURAL STEM CELLS” (AJINOMOTO CO., INC., priority 2015, published 2018).
“Also recorded” adds a separate entry of the source.

System: neurosphere (neural stem cells and/or neural progenitor cells induced from human pluripotent stem cells)
Test: Functional evaluation of fatty acid (oleic acid) added to human serum albumin-added medium: neurosphere morphology
Assay type: cell-based
Conditions: 14 days' culturing
Description: Similar to Example 1, 2.1 mg/mL human serum albumin-added medium was produced. A medium was produced by adding oleic acid (Tokyo Chemical Industry Co., Ltd.) at a final concentration of 20 μM or 60 μM to this medium, and a medium without addition of oleic acid was produced, and neurospheres were cultured in these media. […] The medium was exchanged every 7 days and, after 14 days' culturing, the morphology of the neurosphere formed was observed under a microscope.

CCCCCCCC/C=C\CCCCCCCC(=O)O [oleic acid]
morphology of the neurosphere formed (20 μM oleic acid in 2.1 mg/mL human serum albumin-added medium): showed a good neurosphere form
morphology of the neurosphere formed (60 μM oleic acid in 2.1 mg/mL human serum albumin-added medium): show a black sphere with an irregular shape; also recorded: Many black sphere images with an irregular shape were confirmed
